Numbers after ± are expanded uncertainties.
Assay: xn = mol fraction of the nth substance listed
Settings: 81.5 kPa, Liquid; for speed of sound: Sing-around technique in a fixed-path interferometer; for mass density: Vibrating tube method

CCn1cc[n+](C)c1.F[B-](F)(F)F [1-ethyl-3-methylimidazolium tetrafluoroborate] + CN(C)C=O
Settings	mass density [kg/m3]	speed of sound [m/s]
293.15 K, x1 = 0.0997	1019.18 ± 4.1	1524.5 ± 3.1
293.15 K, x1 = 0.2042	1075.44 ± 4.3	1552.3 ± 3.1
293.15 K, x1 = 0.2983	1116.82 ± 4.5	1571.7 ± 3.2
293.15 K, x1 = 0.4111	1157.47 ± 4.6	1589.3 ± 3.2
293.15 K, x1 = 0.5003	1184.76 ± 4.8	1600.9 ± 3.3
293.15 K, x1 = 0.585	1206.75 ± 4.9	1609.6 ± 3.3
293.15 K, x1 = 0.6965	1231.36 ± 5	1618.8 ± 3.4
293.15 K, x1 = 0.7833	1247.19 ± 5.1	1625.5 ± 3.5
293.15 K, x1 = 0.9134	1267.67 ± 5.2	1633.1 ± 3.6
293.15 K, x1 = 1	1285.95 ± 5.3	1640.4 ± 3.7
298.15 K, x1 = 0.0997	1014.69 ± 4.1	1506.5 ± 3.1
298.15 K, x1 = 0.2042	1071.12 ± 4.3	1535.6 ± 3.1
298.15 K, x1 = 0.2983	1112.62 ± 4.5	1555.9 ± 3.2
298.15 K, x1 = 0.4111	1153.38 ± 4.6	1574.6 ± 3.2
298.15 K, x1 = 0.5003	1180.74 ± 4.7	1586.9 ± 3.3
298.15 K, x1 = 0.585	1202.77 ± 4.8	1596.1 ± 3.3
298.15 K, x1 = 0.6965	1227.44 ± 5	1605.9 ± 3.4
298.15 K, x1 = 0.7833	1243.3 ± 5	1612.9 ± 3.5
298.15 K, x1 = 0.9134	1263.82 ± 5.2	1620.9 ± 3.6
298.15 K, x1 = 1	1282.14 ± 5.3	1628.4 ± 3.7
303.15 K, x1 = 0.0997	1010.19 ± 4	1488.6 ± 3.1
303.15 K, x1 = 0.2042	1066.81 ± 4.3	1519 ± 3.1
303.15 K, x1 = 0.2983	1108.42 ± 4.4	1540.4 ± 3.2
303.15 K, x1 = 0.4111	1149.29 ± 4.6	1560.1 ± 3.2
303.15 K, x1 = 0.5003	1176.72 ± 4.7	1573 ± 3.3
303.15 K, x1 = 0.585	1198.81 ± 4.8	1582.7 ± 3.3
303.15 K, x1 = 0.6965	1223.53 ± 4.9	1593 ± 3.4
303.15 K, x1 = 0.7833	1239.43 ± 5	1600.5 ± 3.5
303.15 K, x1 = 0.9134	1259.99 ± 5.2	1608.8 ± 3.6
303.15 K, x1 = 1	1278.34 ± 5.3	1616 ± 3.7
308.15 K, x1 = 0.0997	1005.7 ± 4	1470.8 ± 3.1
308.15 K, x1 = 0.2042	1062.49 ± 4.3	1502.6 ± 3.1
308.15 K, x1 = 0.2983	1104.23 ± 4.4	1524.9 ± 3.2
308.15 K, x1 = 0.4111	1145.23 ± 4.6	1545.6 ± 3.2
308.15 K, x1 = 0.5003	1172.72 ± 4.7	1559.2 ± 3.3
308.15 K, x1 = 0.585	1194.86 ± 4.8	1569.4 ± 3.3
308.15 K, x1 = 0.6965	1219.63 ± 4.9	1580.3 ± 3.4
308.15 K, x1 = 0.7833	1235.57 ± 5	1588.2 ± 3.5
308.15 K, x1 = 0.9134	1256.17 ± 5.1	1596.9 ± 3.6
308.15 K, x1 = 1	1274.55 ± 5.3	1604.9 ± 3.7
313.15 K, x1 = 0.0997	1001.2 ± 4	1453.1 ± 3.1
313.15 K, x1 = 0.2042	1058.19 ± 4.2	1486.2 ± 3.1
313.15 K, x1 = 0.2983	1100.05 ± 4.4	1509.6 ± 3.2
313.15 K, x1 = 0.4111	1141.17 ± 4.6	1531.3 ± 3.2
313.15 K, x1 = 0.5003	1168.73 ± 4.7	1545.6 ± 3.3
313.15 K, x1 = 0.585	1190.92 ± 4.8	1556.3 ± 3.3
313.15 K, x1 = 0.6965	1215.75 ± 4.9	1567.7 ± 3.4
313.15 K, x1 = 0.7833	1231.73 ± 5	1576 ± 3.5
313.15 K, x1 = 0.9134	1252.37 ± 5.1	1585 ± 3.6
313.15 K, x1 = 1	1270.78 ± 5.2	1593.4 ± 3.7
318.15 K, x1 = 0.0997	996.709 ± 4	1435.6 ± 3.1
318.15 K, x1 = 0.2042	1053.89 ± 4.2	1470 ± 3.1
318.15 K, x1 = 0.2983	1095.88 ± 4.4	1494.4 ± 3.2
318.15 K, x1 = 0.4111	1137.12 ± 4.6	1517.1 ± 3.2
318.15 K, x1 = 0.5003	1164.76 ± 4.7	1532 ± 3.3
318.15 K, x1 = 0.585	1187 ± 4.8	1543.3 ± 3.3
318.15 K, x1 = 0.6965	1211.89 ± 4.9	1555.3 ± 3.4
318.15 K, x1 = 0.7833	1227.91 ± 5	1563.9 ± 3.5
318.15 K, x1 = 0.9134	1248.58 ± 5.1	1573.3 ± 3.6
318.15 K, x1 = 1	1267.03 ± 5.2	1582 ± 3.7
323.15 K, x1 = 0.0997	992.209 ± 4	1418.1 ± 3.1
323.15 K, x1 = 0.2042	1049.59 ± 4.2	1453.8 ± 3.1
323.15 K, x1 = 0.2983	1091.72 ± 4.4	1479.3 ± 3.2
323.15 K, x1 = 0.4111	1133.08 ± 4.5	1503 ± 3.2
323.15 K, x1 = 0.5003	1160.79 ± 4.7	1518.6 ± 3.3
323.15 K, x1 = 0.585	1183.1 ± 4.8	1530.4 ± 3.3
323.15 K, x1 = 0.6965	1208.05 ± 4.9	1542.9 ± 3.4
323.15 K, x1 = 0.7833	1224.11 ± 5	1551.9 ± 3.5
323.15 K, x1 = 0.9134	1244.82 ± 5.1	1561.7 ± 3.6
323.15 K, x1 = 1	1263.3 ± 5.2	1570.6 ± 3.7
328.15 K, x1 = 0.0997	987.708 ± 4	1400.7 ± 3.1
328.15 K, x1 = 0.2042	1045.31 ± 4.2	1437.8 ± 3.1
328.15 K, x1 = 0.2983	1087.57 ± 4.4	1464.2 ± 3.2
328.15 K, x1 = 0.4111	1129.05 ± 4.5	1489 ± 3.2
328.15 K, x1 = 0.5003	1156.85 ± 4.6	1505.2 ± 3.3
328.15 K, x1 = 0.585	1179.21 ± 4.7	1517.6 ± 3.3
328.15 K, x1 = 0.6965	1204.22 ± 4.9	1530.6 ± 3.4
328.15 K, x1 = 0.7833	1220.32 ± 4.9	1540 ± 3.5
328.15 K, x1 = 0.9134	1241.07 ± 5.1	1550.1 ± 3.6
328.15 K, x1 = 1	1259.58 ± 5.2	1559.4 ± 3.7
333.15 K, x1 = 0.0997	983.204 ± 3.9	1383.3 ± 3.1
333.15 K, x1 = 0.2042	1041.01 ± 4.2	1421.8 ± 3.1
333.15 K, x1 = 0.2983	1083.42 ± 4.3	1449.3 ± 3.2
333.15 K, x1 = 0.4111	1125.03 ± 4.5	1475 ± 3.2
333.15 K, x1 = 0.5003	1152.91 ± 4.6	1492 ± 3.3
333.15 K, x1 = 0.585	1175.33 ± 4.7	1504.8 ± 3.3
333.15 K, x1 = 0.6965	1200.41 ± 4.8	1518.4 ± 3.4
333.15 K, x1 = 0.7833	1216.55 ± 4.9	1528.2 ± 3.5
333.15 K, x1 = 0.9134	1237.34 ± 5.1	1538.7 ± 3.6
333.15 K, x1 = 1	1255.88 ± 5.2	1548.2 ± 3.7
338.15 K, x1 = 0.0997	978.699 ± 3.9	1366.1 ± 3.1
338.15 K, x1 = 0.2042	1036.73 ± 4.1	1405.9 ± 3.1
338.15 K, x1 = 0.2983	1079.28 ± 4.3	1434.5 ± 3.2
338.15 K, x1 = 0.4111	1121.03 ± 4.5	1461.2 ± 3.2
338.15 K, x1 = 0.5003	1148.99 ± 4.6	1478.9 ± 3.3
338.15 K, x1 = 0.585	1171.47 ± 4.7	1492.2 ± 3.3
338.15 K, x1 = 0.6965	1196.61 ± 4.8	1506.4 ± 3.4
338.15 K, x1 = 0.7833	1212.8 ± 4.9	1516.5 ± 3.5
338.15 K, x1 = 0.9134	1233.63 ± 5	1527.4 ± 3.6
338.15 K, x1 = 1	1252.2 ± 5.2	1537.2 ± 3.7
343.15 K, x1 = 0.0997	974.184 ± 3.9	1348.9 ± 3.1
343.15 K, x1 = 0.2042	1032.45 ± 4.1	1390.2 ± 3.1
343.15 K, x1 = 0.2983	1075.15 ± 4.3	1419.8 ± 3.2
343.15 K, x1 = 0.4111	1117.03 ± 4.5	1447.5 ± 3.2
343.15 K, x1 = 0.5003	1145.07 ± 4.6	1465.8 ± 3.3
343.15 K, x1 = 0.585	1167.62 ± 4.7	1479.7 ± 3.3
343.15 K, x1 = 0.6965	1192.82 ± 4.8	1494.4 ± 3.4
343.15 K, x1 = 0.7833	1209.06 ± 4.9	1504.9 ± 3.5
343.15 K, x1 = 0.9134	1229.93 ± 5	1516.1 ± 3.6
343.15 K, x1 = 1	1248.54 ± 5.2	1526.2 ± 3.7

Source: the NIST ThermoML archive (doi:10.1021/acs.jced.6b00496)
